Laboratory results: PMC6585443 (ACS infectious diseases, 2018)
In brackets after ≈: the same amount, converted by molar mass.

Key:
[1] = test system: human kinases involved in cellular proliferation; details: cited from earlier work
[2] = test system: P. falciparum W2; experiment: P. falciparum W2 antimalarial activity; assay type: cell-based, Plasmodium falciparum; details: less potent against W2 (CQ resistant) than D6
[3] = aqueous solubility pH 7.4; assay type: physicochemical
[4] = test system: P. berghei; experiment: modified Thompson in vivo infection model; details: mice, intraperitoneal 160 mg/kg/day × 3 days; for parasitemia: days 3 to 5 post-infection
[5] = test system: P. falciparum D6; experiment: P. falciparum D6 antimalarial activity; assay type: cell-based, Plasmodium falciparum; details: D6 strain
[6] = test system: P. falciparum C235; experiment: P. falciparum C235 antimalarial activity; assay type: cell-based, Plasmodium falciparum; details: less potent against C235 (CQ, MQ, pyrimethamine resistant) than D6
[7] = target: T1, Aurora A (Homo sapiens, UniProt O14965); experiment: human kinase panel at 5 μM; assay type: biochemical; details: test concentration 5 μM
T1 sequence (O14965 1-403): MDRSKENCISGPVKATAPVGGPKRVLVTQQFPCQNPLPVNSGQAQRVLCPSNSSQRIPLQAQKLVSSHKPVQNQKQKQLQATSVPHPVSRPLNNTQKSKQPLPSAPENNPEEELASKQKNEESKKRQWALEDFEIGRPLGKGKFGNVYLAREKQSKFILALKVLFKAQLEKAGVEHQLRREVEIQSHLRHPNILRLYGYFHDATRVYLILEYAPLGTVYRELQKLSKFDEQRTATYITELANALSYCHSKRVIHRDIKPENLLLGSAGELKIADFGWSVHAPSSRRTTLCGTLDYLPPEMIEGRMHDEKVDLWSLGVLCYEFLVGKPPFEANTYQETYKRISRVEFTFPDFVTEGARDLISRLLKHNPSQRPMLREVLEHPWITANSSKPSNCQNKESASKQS

[8] = target: KDR (Homo sapiens, UniProt P35968); experiment: human kinase panel at 5 μM; assay type: biochemical; details: test concentration 5 μM
Chain of KDR (P35968 20-1356): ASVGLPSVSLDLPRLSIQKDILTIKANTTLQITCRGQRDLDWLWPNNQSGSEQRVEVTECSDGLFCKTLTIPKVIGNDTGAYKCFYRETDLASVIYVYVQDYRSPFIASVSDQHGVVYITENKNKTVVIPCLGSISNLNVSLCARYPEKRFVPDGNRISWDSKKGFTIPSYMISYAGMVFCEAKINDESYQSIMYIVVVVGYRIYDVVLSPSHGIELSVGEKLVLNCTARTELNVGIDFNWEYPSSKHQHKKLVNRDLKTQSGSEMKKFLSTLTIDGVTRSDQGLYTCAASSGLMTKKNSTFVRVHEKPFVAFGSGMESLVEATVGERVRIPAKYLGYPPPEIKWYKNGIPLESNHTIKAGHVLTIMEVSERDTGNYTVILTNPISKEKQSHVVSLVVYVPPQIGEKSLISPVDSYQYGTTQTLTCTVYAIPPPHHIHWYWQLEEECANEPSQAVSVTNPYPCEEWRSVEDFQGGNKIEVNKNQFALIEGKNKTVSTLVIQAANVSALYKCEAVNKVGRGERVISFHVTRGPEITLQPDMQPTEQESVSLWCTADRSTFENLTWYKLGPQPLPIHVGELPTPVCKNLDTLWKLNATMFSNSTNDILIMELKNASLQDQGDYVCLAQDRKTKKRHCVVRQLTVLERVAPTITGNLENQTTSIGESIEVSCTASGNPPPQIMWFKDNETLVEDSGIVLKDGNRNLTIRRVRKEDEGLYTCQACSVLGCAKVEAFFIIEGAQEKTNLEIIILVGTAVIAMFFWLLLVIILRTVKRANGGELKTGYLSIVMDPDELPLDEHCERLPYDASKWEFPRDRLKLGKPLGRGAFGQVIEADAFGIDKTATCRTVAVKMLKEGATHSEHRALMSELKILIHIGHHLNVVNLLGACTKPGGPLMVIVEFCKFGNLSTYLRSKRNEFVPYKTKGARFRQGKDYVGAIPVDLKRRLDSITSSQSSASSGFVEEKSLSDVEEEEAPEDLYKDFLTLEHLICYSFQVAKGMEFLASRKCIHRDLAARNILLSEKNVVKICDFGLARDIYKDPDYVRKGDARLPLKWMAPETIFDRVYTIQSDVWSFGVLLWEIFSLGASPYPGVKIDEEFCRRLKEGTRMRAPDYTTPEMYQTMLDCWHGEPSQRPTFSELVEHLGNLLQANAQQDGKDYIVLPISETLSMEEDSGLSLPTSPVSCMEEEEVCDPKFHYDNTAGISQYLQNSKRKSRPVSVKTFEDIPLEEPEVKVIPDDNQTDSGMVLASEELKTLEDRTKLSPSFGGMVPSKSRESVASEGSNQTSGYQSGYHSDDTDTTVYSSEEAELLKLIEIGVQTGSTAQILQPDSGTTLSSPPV

[9] = test system: panel of human kinases; experiment: human kinase panel at 5 μM; assay type: biochemical; details: test concentration 5 μM
[10] = target: Abl (Homo sapiens, UniProt P00519); experiment: human kinase panel at 5 μM; assay type: biochemical; details: test concentration 5 μM
Chain of Abl (P00519 whole entry): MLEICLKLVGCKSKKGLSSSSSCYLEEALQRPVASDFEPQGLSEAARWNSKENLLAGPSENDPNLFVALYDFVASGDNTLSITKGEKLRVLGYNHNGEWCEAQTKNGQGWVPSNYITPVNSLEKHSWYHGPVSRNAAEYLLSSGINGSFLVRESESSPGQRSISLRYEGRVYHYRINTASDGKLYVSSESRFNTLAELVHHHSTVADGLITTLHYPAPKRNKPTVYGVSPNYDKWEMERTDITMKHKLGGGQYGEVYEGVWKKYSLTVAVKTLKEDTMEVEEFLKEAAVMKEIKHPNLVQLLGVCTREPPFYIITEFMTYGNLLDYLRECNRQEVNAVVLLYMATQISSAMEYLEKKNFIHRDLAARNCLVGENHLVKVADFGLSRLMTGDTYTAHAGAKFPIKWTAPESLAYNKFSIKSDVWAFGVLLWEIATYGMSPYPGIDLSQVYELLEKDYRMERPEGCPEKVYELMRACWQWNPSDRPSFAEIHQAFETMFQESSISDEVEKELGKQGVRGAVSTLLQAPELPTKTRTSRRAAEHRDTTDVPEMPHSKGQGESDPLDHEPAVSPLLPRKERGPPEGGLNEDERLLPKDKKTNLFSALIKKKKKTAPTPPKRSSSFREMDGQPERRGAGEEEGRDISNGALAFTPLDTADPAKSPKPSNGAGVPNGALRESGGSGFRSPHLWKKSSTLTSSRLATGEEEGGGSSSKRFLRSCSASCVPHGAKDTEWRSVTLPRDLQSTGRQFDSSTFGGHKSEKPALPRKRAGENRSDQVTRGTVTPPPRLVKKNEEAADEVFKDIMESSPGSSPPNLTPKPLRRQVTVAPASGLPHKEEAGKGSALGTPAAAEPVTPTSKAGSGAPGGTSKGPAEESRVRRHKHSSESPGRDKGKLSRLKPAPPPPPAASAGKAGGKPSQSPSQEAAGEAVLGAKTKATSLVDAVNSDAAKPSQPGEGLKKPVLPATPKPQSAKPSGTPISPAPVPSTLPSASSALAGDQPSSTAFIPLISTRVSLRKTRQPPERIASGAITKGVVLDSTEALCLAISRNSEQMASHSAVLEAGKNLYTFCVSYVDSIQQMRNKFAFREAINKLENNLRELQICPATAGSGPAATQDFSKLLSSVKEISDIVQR

[11] = target: EGFR (Homo sapiens, UniProt P00533); experiment: human kinase panel at 5 μM; assay type: biochemical; details: test concentration 5 μM
[12] = target: MNK2 (Homo sapiens, UniProt Q9HBH9); experiment: human kinase panel at 5 μM; assay type: biochemical; details: test concentration 5 μM
Chain of MNK2 (Q9HBH9 whole entry): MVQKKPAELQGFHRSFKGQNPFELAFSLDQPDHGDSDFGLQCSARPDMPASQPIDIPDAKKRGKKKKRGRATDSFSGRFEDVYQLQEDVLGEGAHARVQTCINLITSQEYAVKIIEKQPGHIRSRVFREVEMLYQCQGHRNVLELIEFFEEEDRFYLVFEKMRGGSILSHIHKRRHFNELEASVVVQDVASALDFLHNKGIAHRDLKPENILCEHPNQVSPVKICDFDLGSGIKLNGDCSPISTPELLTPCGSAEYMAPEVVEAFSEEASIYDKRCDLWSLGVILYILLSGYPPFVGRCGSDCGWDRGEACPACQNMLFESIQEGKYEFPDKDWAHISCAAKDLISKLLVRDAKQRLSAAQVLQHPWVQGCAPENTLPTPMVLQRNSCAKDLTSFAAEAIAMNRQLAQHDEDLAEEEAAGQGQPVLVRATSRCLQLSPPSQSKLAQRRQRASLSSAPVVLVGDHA

[13] = target: MAP4K4 (Homo sapiens, UniProt O95819); experiment: human kinase panel at 5 μM; assay type: biochemical; details: test concentration 5 μM
Chain of MAP4K4 (O95819 whole entry): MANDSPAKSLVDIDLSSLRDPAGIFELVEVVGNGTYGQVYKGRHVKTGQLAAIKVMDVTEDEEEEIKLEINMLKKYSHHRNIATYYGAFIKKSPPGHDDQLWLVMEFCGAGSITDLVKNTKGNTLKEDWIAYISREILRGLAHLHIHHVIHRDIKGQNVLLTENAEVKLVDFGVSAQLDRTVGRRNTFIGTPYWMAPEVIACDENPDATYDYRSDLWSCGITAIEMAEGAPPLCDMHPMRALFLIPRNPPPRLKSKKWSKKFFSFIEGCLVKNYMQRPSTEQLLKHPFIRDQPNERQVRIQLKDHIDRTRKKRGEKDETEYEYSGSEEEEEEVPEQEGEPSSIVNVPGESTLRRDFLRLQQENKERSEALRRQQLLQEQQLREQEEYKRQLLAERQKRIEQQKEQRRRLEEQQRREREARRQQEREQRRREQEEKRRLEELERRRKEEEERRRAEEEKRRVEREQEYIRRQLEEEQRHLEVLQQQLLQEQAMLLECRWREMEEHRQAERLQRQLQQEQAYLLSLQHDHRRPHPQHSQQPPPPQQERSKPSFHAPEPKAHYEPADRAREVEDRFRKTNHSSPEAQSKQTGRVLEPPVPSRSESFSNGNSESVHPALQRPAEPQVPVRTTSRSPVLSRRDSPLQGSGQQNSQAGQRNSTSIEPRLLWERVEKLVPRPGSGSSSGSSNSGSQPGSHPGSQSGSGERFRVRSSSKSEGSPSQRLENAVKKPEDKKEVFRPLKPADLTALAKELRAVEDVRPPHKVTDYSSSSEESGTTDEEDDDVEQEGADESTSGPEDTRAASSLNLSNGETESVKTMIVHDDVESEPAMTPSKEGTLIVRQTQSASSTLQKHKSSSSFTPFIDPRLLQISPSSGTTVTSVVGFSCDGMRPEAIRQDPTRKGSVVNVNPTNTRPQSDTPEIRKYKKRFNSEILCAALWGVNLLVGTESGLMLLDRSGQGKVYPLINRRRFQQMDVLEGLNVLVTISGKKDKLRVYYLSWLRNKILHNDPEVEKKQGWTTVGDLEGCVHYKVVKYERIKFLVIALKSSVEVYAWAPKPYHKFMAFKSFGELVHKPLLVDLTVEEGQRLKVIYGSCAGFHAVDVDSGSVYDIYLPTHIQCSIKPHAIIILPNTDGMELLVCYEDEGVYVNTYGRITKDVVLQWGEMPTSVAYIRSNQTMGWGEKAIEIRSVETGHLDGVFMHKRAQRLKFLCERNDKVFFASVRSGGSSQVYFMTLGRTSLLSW

[14] = rat hepatocyte intrinsic clearance; assay type: in vitro ADME; details: rat hepatocytes
[15] = LogD7.4; assay type: physicochemical; details: pH 7.4
[16] = human liver microsome intrinsic clearance; assay type: in vitro ADME; details: liver microsomes
[17] = aqueous solution at pH 7.4, pH 7.4, aqueous buffer

CS(=O)(=O)CCNCc1ccc(-c2ccc3ncnc(Nc4ccc(OCc5cccc(F)c5)c(Cl)c4)c3c2)o1 [Compound 1, lapatinib]
selectivity versus numerous human kinases [1]: > 300 fold

COc1ccc(Nc2ccnc3cc(-c4ccc(S(=O)(=O)N5CCN(C)CC5)cc4)ccc23)cc1Cl [Compound 7, N-(3-Chloro-4-methoxyphenyl)-7-{4-[(4-methylpiperazin-1-yl)sulfonyl]phenyl}quinolin-4-amine]
activity against W2 strain relative to D6 (fold) [2]: > 3 fold
solubility ([3]; aqueous medium, pH 7.4, aqueous buffer): 100 µM (≈ 52.3 µg/mL)
life extension compared to the control group [4]: 5 days
parasitemia [4]: reduction in parasitemia

Cc1ccc(Nc2ccnc3cc(-c4ccc(S(=O)(=O)N5CCN(C)CC5)cc4)ccc23)cc1Cl [Compound 11, N-(3-Chloro-4-methylphenyl)-7-{4-[(4-methylpiperazin-1-yl)sulfonyl]phenyl}quinolin-4-amine]
activity against W2 strain relative to D6 (fold) [2]: > 3 fold

CN1CCN(S(=O)(=O)c2ccc(-c3ccc4c(Nc5cccnc5)ccnc4c3)cc2)CC1 [Compound 12, 7-{4-[(4-Methylpiperazin-1-yl)sulfonyl]phenyl}-N-(pyridin-3-yl)quinolin-4-amine]
reduction in potency compared to 3 [5]: 10 fold

CN1CCN(S(=O)(=O)c2ccc(-c3ccc4c(Nc5cnccn5)ccnc4c3)cc2)CC1 [Compound 14, 7-{4-[(4-Methylpiperazin-1-yl)sulfonyl]phenyl}-N-(pyrazin-2-yl)quinolin-4-amine]
activity against W2 strain relative to D6 (fold) [2]: > 3 fold

CN1CCN(S(=O)(=O)c2ccc(-c3ccc4c(Nc5cnc(C#N)cn5)ccnc4c3)cc2)CC1 [Compound 19, 5-[(7-{4-[(4-Methylpiperazin-1-yl)sulfonyl]phenyl}quinolin-4-yl)amino]pyrazine-2-carbonitrile]
activity against W2 strain relative to D6 (fold) [2]: > 3 fold

CN1CCN(S(=O)(=O)c2ccc(-c3ccc4c(Nc5ncc(Cl)cn5)ccnc4c3)cc2)CC1 [Compound 21, N-(5-Chloropyrimidin-2-yl)-7-{4-[(4-methylpiperazin-1-yl)sulfonyl]phenyl}quinolin-4-amine]
activity against W2 strain relative to D6 (fold) [2]: > 3 fold
activity against C235 strain relative to D6 (fold) [6]: > 3 fold

Cc1nnc(Nc2ccnc3cc(-c4ccc(S(=O)(=O)N5CCN(C)CC5)cc4)ccc23)nc1C [Compound 23, N-(Dimethyl-1,2,4-triazin-3-yl)-7-{4-[(4-methylpiperazin-1-yl)sulfonyl]phenyl}quinolin-4-amine]
activity against W2 strain relative to D6 (fold) [2]: > 3 fold

Cc1cc(Nc2ccnc3cc(-c4ccc(S(=O)(=O)N5CCN(C)CC5)cc4)ccc23)sn1 [Compound 24, N-(3-Methyl-1,2-thiazol-5-yl)-7-{4-[(4-methylpiperazin-1-yl)sulfonyl]phenyl}quinolin-4-amine]
activity against W2 strain relative to D6 (fold) [2]: > 3 fold

CN1CCN(c2nsnc2-c2ccc3c(Nc4ccc(OCc5cccc(F)c5)c(Cl)c4)ccnc3c2)CC1 [Compound 30, N-(3-Chloro-4-((3-fluorobenzyl)oxy)phenyl)-7-(4-(4-methylpiperazin-1-yl)-1,2,5-thiadiazol-3-yl)quinolin-4-amine]
reduction in potency compared to 3 [5]: six-fold reduction in potency

CC(C)(C)OC(=O)Nc1ccc2c(Nc3ccc(OCc4cccc(F)c4)c(Cl)c3)ccnc2c1 [Compound 36, Tert-butyl (4-((3-Chloro-4-((3-fluorobenzyl)oxy)phenyl)amino)quinolin-7-yl)carbamate]
activity against W2 strain relative to D6 (fold) [2]: > 3 fold
reduction in potency compared to 3 [5]: almost three-fold drop in potency

CN1CCN(c2ncc(-c3ccc4c(Nc5cnccn5)ccnc4c3)cn2)CC1 [Compound 40, 7-(2-(4-Methylpiperazin-1-yl)pyrimidin-5-yl)-N-(pyrazin-2-yl)quinolin-4-amine]
inhibition of Aurora A [7]: significant inhibition
inhibition of KDR [8]: significant inhibition
number of kinases with insignificant inhibition [9]: 28 kinases
number of kinases with moderate to weak inhibition [9]: 10 kinases
inhibition of Abl [10]: significant inhibition
inhibition of EGFR [11]: significant inhibition
inhibition of MNK2 [12]: significant inhibition
inhibition of MAP4K4 [13]: significant inhibition
parasitemia [4]: reduction in parasitemia
Rat Hepatocyte CLint [14]: 130 μL/min/10^6

COc1ccc(Nc2ccnc3cc(-c4cnc(N5CCN(C)CC5)nc4)ccc23)cc1Cl [Compound 41, N-(3-Chloro-4-methoxyphenyl)-7-(2-(4-methylpiperazin-1-yl)pyrimidin-5-yl)quinolin-4-amine]
solubility [3, 17]: < 1 µM
Rat Hepatocyte CLint [14]: 45 μL/min/10^6

CN1CCN(c2ncc(-c3ccc4c(Nc5ccc6[nH]nnc6c5)ccnc4c3)cn2)CC1 [Compound 42, N-(1H-Benzo[d][1,2,3]triazol-5-yl)-7-(2-(4-methylpiperazin-1-yl)pyrimidin-5-yl)quinolin-4-amine]
solubility [3, 17]: < 1 µM
logD [15]: 3.3
microsomal CLint [16]: 120 µL/min/mg
Rat Hepatocyte CLint [14]: 51 μL/min/10^6

c1cnc(Nc2ccnc3cc(-c4cn[nH]c4)ccc23)cn1 [Compound 43, N-(Pyrazin-2-yl)-7-(1H-pyrazol-4-yl)quinolin-4-amine]
solubility [3, 17]: 1 µM (≈ 0.288 µg/mL)
logD [15]: 2.6
microsomal CLint [16]: 130 µL/min/mg
Rat Hepatocyte CLint [14]: 5.0 μL/min/10^6

COc1ccc(Nc2ccnc3cc(-c4cn[nH]c4)ccc23)cc1Cl [Compound 44, N-(3-Chloro-4-methoxyphenyl)-7-(1H-pyrazol-4-yl)quinolin-4-amine]
solubility [3, 17]: 2 µM (≈ 0.702 µg/mL)
logD [15]: 3.5
microsomal CLint [16]: 8 µL/min/mg
Rat Hepatocyte CLint [14]: 5.0 μL/min/10^6

CN1CCN(c2ccc(Nc3ccc4c(Nc5cnccn5)ccnc4c3)cc2)CC1 [Compound 45, N^7-(4-(4-Methylpiperazin-1-yl)phenyl)-N^4-(pyrazin-2-yl)quinoline-4,7-diamine]
logD [15]: 2.2
Rat Hepatocyte CLint [14]: 10 μL/min/10^6

CN1CCN(c2ccnc(Nc3ccc4c(Nc5cnccn5)ccnc4c3)n2)CC1 [Compound 46, N^7-(4-(4-Methylpiperazin-1-yl)pyrimidin-2-yl)-N^4-(pyrazin-2-yl)quinoline-4,7-diamine]
logD [15]: 2.8
Rat Hepatocyte CLint [14]: 9.3 μL/min/10^6

COc1ccc(Nc2ccnc3cc(Nc4nccc(N5CCN(C)CC5)n4)ccc23)cc1Cl [Compound 47, N^4-(3-Chloro-4-methoxyphenyl)-N^7-(4-(4-methylpiperazin-1-yl)pyrimidin-2-yl)quinoline-4,7-diamine]
solubility [3, 17]: 570 µM (≈ 271 µg/mL)
logD [15]: 3.3
Rat Hepatocyte CLint [14]: 7.2 μL/min/10^6

CN1CCN(c2nccc(Nc3ccc4c(Nc5cnccn5)ccnc4c3)n2)CC1 [Compound 48, N^7-(2-(4-Methylpiperazin-1-yl)pyrimidin-4-yl)-N^4-(pyrazin-2-yl)quinoline-4,7-diamine]
logD [15]: 2.9

COc1ccc(Nc2ccnc3cc(Nc4ccnc(N5CCN(C)CC5)n4)ccc23)cc1Cl [Compound 49, N^4-(3-Chloro-4-methoxyphenyl)-N^7-(2-(4-methylpiperazin-1-yl)pyrimidin-4-yl)quinoline-4,7-diamine]
microsomal CLint [16]: 45 µL/min/mg
Rat Hepatocyte CLint [14]: 2.3 μL/min/10^6
